According to PubChem BioAssay AID1963962 (Molecular Pharmacology Branch, DTP, NCI, 2024):

System: 967376-340-R-J2-PDC multicell spheroid viability
Assay: Anticancer human tumor 967376-340-R-J2-PDC patient-derived colon adenocarcinoma cell line growth inhibition [PI3K]
Conditions: for IC50: curve of first compound; for viability, T/C: stronger effect = lower value
Source text: Combinatorial screen of targeted agents with the PI3K inhibitors inavolisib, alpelisib, duvelisib, and copanlisib in multi-cell type tumor spheroids
A high-throughput screen of multi-cell type tumor spheroids was designed to identify active combinations of targeted small molecules and PI3K pathway inhibitors. Complex spheroids include a stromal component modeled by human endothelial cells (HUVEC) and fibroblasts modeled by human mesenchymal stem cells (MSCs). The concentration ranges selected for each drug and investigational agent were based upon clinically achievable concentrations if the clinical Cmax of the agent was known.
Compounds. The drugs and investigational agents: inavolisib (NSC800729), alpelisib (NSC765974), duvelisib (NSC772469), copanlisib (NSC816437), ipatasertib (NSC767898), afuresertib (NSC778305), talazoparib (NSC767125), sapanisertib (NSC764658), selumetinib (NSC741078), tovorafenib (DAY101, NSC766906), vemurafenib (NSC761431), ravoxertinib (NSC781343), sotorasib (NSC818433), MRTX1133 (NSC 836407), abemaciclib (NSC 768073), palbociclib (NSC758247), venetoclax (NSC 766270), SY5609 (NSC837396), enzalutamide (NSC755605), and darolutamide (NSC825331), were obtained from the National Cancer Institute (NCI) Developmental Therapeutics Program Chemical Repository. The FDA-approved anticancer drug set is available from the NCI Developmental Therapeutics Program. […] The stock solutions were prepared in dimethyl sulfoxide (DMSO, Sigma-Aldrich, St. Louis, MO, cat. D2650) at 800-fold the tested concentration and stored at -70 degrees C prior to their use. All drugs and investigational agents were tested over a range starting from a high concentration at or near the clinical Cmax and decreasing in half-log increments. If the clinical Cmax for an agent had not been determined, the highest concentration tested was 10 microM.
Cell Culture. All cells were maintained in an incubator at 37 degrees C and 5% CO2 with 95% humidity. The PDC lines were cultured according to standard operating procedures established by the NCI PDMR (https://pdmr.cancer.gov/sops/default.htm). All PDCs were thawed and cultured in Matrigel-coated flasks prepared with a working solution of 1X Ham's F-12 nutrient mix, without supplementation (Invitrogen, Waltham, MA, cat. 11765054), 100 U/mL penicillin-streptomycin (Invitrogen, cat. 15140122), and 2.5% Matrigel (Corning Inc., Corning, NY, cat. 354248) for the first three passages. The 354836-022-R-J1-PDC, 475296-252-R-J1-PDC, and 997726-040-R-J2-PDC lines were cultured in 6A media, which includes advanced DMEM/F-12 (Thermo Fisher Scientific, cat. 12634028), 10 mM HEPES (Thermo Fisher Scientific, cat. 15630080), 1X GlutaMAX supplement (Thermo Fisher Scientific, cat. 35050061), 0.1 mg/mL primocin (InvivoGen, San Diego, CA, cat. ant-pm-2), 10% defined fetal bovine serum, heat inactivated (HyClone Laboratories Inc., Logan, UT, cat. SH30070.03HI), 50% L-WRN conditioned media (ATCC, cat. CRL-3276), 1.25 mM N-Acetyl-L-cysteine (Sigma-Aldrich, cat. A9165), 10 mM nicotinamide (Sigma-Aldrich, cat. N0636), 1X B-27 supplement (Thermo Fisher Scientific, cat. 17504044), 1X N-2 supplement (Thermo Fisher Scientific, cat. 17502048), and 10 microM Y-27632 dihydrochloride (Tocris Bioscience, Bristol, United Kingdom, cat. 1254). The 624824-186-R-J2-PDC line was cultured in 6C/Colon 1B media, which includes all 6A media components plus 50 ng/mL human EGF recombinant protein (Thermo Fisher Scientific, cat. PHG0311). […]

[1] = second compound 0.00316 µM, first compound 0.0316 µM
[2] = second compound 0.00316 µM, first compound 0.1 µM
[3] = second compound 0.00316 µM, first compound 0.316 µM
[4] = second compound 0.00316 µM, first compound 1 µM
[5] = second compound 0.00316 µM, first compound 3.16 µM
[6] = second compound 0.00316 µM, first compound 10 µM
[7] = second compound 0.01 µM, first compound 0.0316 µM
[8] = second compound 0.01 µM, first compound 0.1 µM
[9] = second compound 0.01 µM, first compound 0.316 µM
[10] = second compound 0.01 µM, first compound 1 µM
[11] = second compound 0.01 µM, first compound 3.16 µM
[12] = second compound 0.01 µM, first compound 10 µM
[13] = second compound 0.0316 µM, first compound 0.0316 µM
[14] = second compound 0.0316 µM, first compound 0.1 µM
[15] = second compound 0.0316 µM, first compound 0.316 µM
[16] = second compound 0.0316 µM, first compound 1 µM
[17] = second compound 0.0316 µM, first compound 3.16 µM
[18] = second compound 0.0316 µM, first compound 10 µM
[19] = second compound 0.1 µM, first compound 0.0316 µM
[20] = second compound 0.1 µM, first compound 0.1 µM
[21] = second compound 0.1 µM, first compound 0.316 µM
[22] = second compound 0.1 µM, first compound 1 µM
[23] = second compound 0.1 µM, first compound 3.16 µM
[24] = second compound 0.1 µM, first compound 10 µM
[25] = second compound 0.316 µM, first compound 0.0316 µM
[26] = second compound 0.316 µM, first compound 0.1 µM
[27] = second compound 0.316 µM, first compound 0.316 µM
[28] = second compound 0.316 µM, first compound 1 µM
[29] = second compound 0.316 µM, first compound 3.16 µM
[30] = second compound 0.316 µM, first compound 10 µM
[31] = second compound 1 µM, first compound 0.0316 µM
[32] = second compound 1 µM, first compound 0.1 µM
[33] = second compound 1 µM, first compound 0.316 µM
[34] = second compound 1 µM, first compound 1 µM
[35] = second compound 1 µM, first compound 3.16 µM
[36] = second compound 1 µM, first compound 10 µM
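Further: spheroids exposed to agents for 7 days before read-out.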
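Wherever viability, T/C is given: luminescence used as surrogate of cell viability.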

CC1(C)CCC(Nc2ncc(C(F)(F)F)c(-c3c[nH]c4c(P(C)(C)=O)c(C#N)ccc34)n2)CN1 (centres undefined) + CC(Nc1ccc2c(c1)OCCn1cc(N3C(=O)OCC3C(F)F)nc1-2)C(N)=O
IC50 (second compound 0.00316 µM): 6.69 µM
IC50 (second compound 0.01 µM): > 10 µM
IC50 (second compound 0.0316 µM): 6.64 µM
IC50 (second compound 0.1 µM): 2.27 µM
IC50 (second compound 0.316 µM): 3.65 µM
IC50 (second compound 1 µM): 0.277 µM
viability, T/C [1]: 92.7%
viability, T/C [2]: 69.1%
viability, T/C [3]: 68%
viability, T/C [4]: 64.7%
viability, T/C [5]: 57.6%
viability, T/C [6]: 44.3%
viability, T/C [7]: 79%
viability, T/C [8]: 88.1%
viability, T/C [9]: 64.8%
viability, T/C [10]: 53.2%
viability, T/C [11]: 59.6%
viability, T/C [12]: 49%
viability, T/C [13]: 58.4%
viability, T/C [14]: 76.8%
viability, T/C [15]: 63.3%
viability, T/C [16]: 66.2%
viability, T/C [17]: 54.1%
viability, T/C [18]: 46.7%
viability, T/C [19]: 58.5%
viability, T/C [20]: 74.1%
viability, T/C [21]: 69.7%
viability, T/C [22]: 54%
viability, T/C [23]: 48.1%
viability, T/C [24]: 25.6%
viability, T/C [25]: 56.3%
viability, T/C [26]: 67.3%
viability, T/C [27]: 56.9%
viability, T/C [28]: 52.9%
viability, T/C [29]: 54.9%
viability, T/C [30]: 24.8%
viability, T/C [31]: 53.6%
viability, T/C [32]: 53.4%
viability, T/C [33]: 43.5%
viability, T/C [34]: 50.7%
viability, T/C [35]: 36.1%
viability, T/C [36]: 24.6%

Cn1nccc1Nc1nccc(-c2ccn(C(CO)c3ccc(Cl)c(F)c3)c(=O)c2)n1 (centres undefined) + CC(Nc1ccc2c(c1)OCCn1cc(N3C(=O)OCC3C(F)F)nc1-2)C(N)=O
IC50 (second compound 0.00316 µM): > 10 µM
IC50 (second compound 0.01 µM): > 10 µM
IC50 (second compound 0.0316 µM): > 10 µM
IC50 (second compound 0.1 µM): > 10 µM
IC50 (second compound 0.316 µM): > 10 µM
IC50 (second compound 1 µM): 0.0465 µM
viability, T/C [1]: 100%
viability, T/C [2]: 89.8%
viability, T/C [3]: 105%
viability, T/C [4]: 71.5%
viability, T/C [5]: 108%
viability, T/C [6]: 101%
viability, T/C [7]: 107%
viability, T/C [8]: 67.5%
viability, T/C [9]: 81%
viability, T/C [10]: 82.2%
viability, T/C [11]: 91.8%
viability, T/C [12]: 102%
viability, T/C [13]: 80.8%
viability, T/C [14]: 101%
viability, T/C [15]: 76.8%
viability, T/C [16]: 92%
viability, T/C [17]: 70.9%
viability, T/C [18]: 85.3%
viability, T/C [19]: 72.3%
viability, T/C [20]: 65.6%
viability, T/C [21]: 79.3%
viability, T/C [22]: 78.4%
viability, T/C [23]: 72.9%
viability, T/C [24]: 70.3%
viability, T/C [25]: 62.5%
viability, T/C [26]: 68%
viability, T/C [27]: 60.2%
viability, T/C [28]: 78%
viability, T/C [29]: 63.1%
viability, T/C [30]: 46.6%
viability, T/C [31]: 49.6%
viability, T/C [32]: 48.3%
viability, T/C [33]: 48.4%
viability, T/C [34]: 41.6%
viability, T/C [35]: 32.3%
viability, T/C [36]: 31.2%
